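Five concentrations, 48 hours, 96-well plates. At the GI50, growth is halved. The concentration for full growth arrest is given as TGI.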 Peptide text beside a SMILES is read from it. * marks the point of attachment. OSu = O=C1CCC(=O)N1O*; OBn = c1ccc(CO*)cc1; Bn = c1ccc(C*)cc1

Among the test systems are HCT-15 colon; SN12C renal; 786-0 renal; UACC-257 melanoma; HCT-116 colon; IGROV1 ovarian; MOLT-4 leukemia; RPMI-8226 leukemia; CCRF-CEM leukemia; SK-MEL-28 melanoma.
Holding throughout (assay): NCI anticancer screen, dose series, 48 h

Consider `CN(/N=C/c1ccc(Cl)c(Cl)c1)C1=NCCN1`, for which the TGI is above 100 µM in the experiment on HCT-15 colon; 92.7 µM in the experiment on SN12C renal; 34.2 µM with 786-0 renal; 45.2 µM in the experiment with UACC-257 melanoma; 39.1 µM in the experiment on HCT-116 colon; above 100 µM with IGROV1 ovarian. In addition, the TGI was 59.8 µM in the experiment on MOLT-4 leukemia, 60.9 µM with RPMI-8226 leukemia and above 100 µM in the experiment on CCRF-CEM leukemia.
In the case of `Clc1ccc(-c2nn3c(C45CC6CC(CC(C6)C4)C5)nnc3s2)cc1`, the TGI with HCT-15 colon, in the experiment on SN12C renal, in the experiment with 786-0 renal, in the experiment on HCT-116 colon, in the experiment with IGROV1 ovarian and in the experiment with MOLT-4 leukemia was above 100 µM throughout. In addition, the TGI with SK-MEL-28 melanoma, in the experiment on RPMI-8226 leukemia and with CCRF-CEM leukemia was above 100 µM throughout.
For `C/C(=C/c1c(C)[nH]c(=O)[nH]c1=O)C(=O)O`, the TGI in the experiment on HCT-15 colon, in the experiment on SN12C renal, in the experiment with UACC-257 melanoma, in the experiment on HCT-116 colon, in the experiment on IGROV1 ovarian and in the experiment with MOLT-4 leukemia was above 1380 µM in each case. Besides, the TGI in the experiment with SK-MEL-28 melanoma, in the experiment with RPMI-8226 leukemia and in the experiment on CCRF-CEM leukemia was above 1380 µM in each case.
On to `CCOC(=O)c1ccc(NC(NC(=O)CC)(C(F)(F)F)C(F)(F)F)cc1`, for which the TGI in the experiment on HCT-15 colon, in the experiment with 786-0 renal, with UACC-257 melanoma, in the experiment on HCT-116 colon, in the experiment on IGROV1 ovarian and in the experiment on MOLT-4 leukemia was above 100 µM throughout. Further, the TGI in the experiment with SK-MEL-28 melanoma, with RPMI-8226 leukemia and in the experiment on CCRF-CEM leukemia was above 100 µM in each case.
Take `CC(C)(Oc1ccc(C(=O)c2ccc(Cl)cc2)cc1Cl)C(=O)N1CCN(c2ccccc2)CC1`: the TGI in the experiment on HCT-15 colon, with 786-0 renal, with UACC-257 melanoma, with HCT-116 colon, in the experiment on IGROV1 ovarian and in the experiment on MOLT-4 leukemia was above 100 µM each time. Besides, the TGI in the experiment with SK-MEL-28 melanoma, with RPMI-8226 leukemia and in the experiment on CCRF-CEM leukemia was above 100 µM in each case.
Regarding `Cn1c(=O)c2[nH]c(-n3nc(-c4ccccc4)cc3N)nc2n(C)c1=O`, the TGI in the experiment on HCT-15 colon was above 100 µM; with SN12C renal it was above 100 µM; in the experiment on 786-0 renal it was above 100 µM; in the experiment on HCT-116 colon, above 100 µM; in the experiment with IGROV1 ovarian it was 37.1 µM; in the experiment with MOLT-4 leukemia, above 100 µM. Further, the figures for the TGI in the experiment on SK-MEL-28 melanoma, in the experiment with RPMI-8226 leukemia and with CCRF-CEM leukemia were 57.3 µM, above 100 µM and above 100 µM, respectively.
With `c1csc(-c2nnc(C34CC5CC(CC(C5)C3)C4)o2)c1`, the TGI in the experiment with HCT-15 colon was above 100 µM; in the experiment on SN12C renal it was above 100 µM; in the experiment on 786-0 renal, 60.2 µM; in the experiment with HCT-116 colon, above 100 µM; in the experiment with IGROV1 ovarian, above 100 µM; with MOLT-4 leukemia, 60 µM. In addition, the figures for the TGI in the experiment with SK-MEL-28 melanoma, with RPMI-8226 leukemia and with CCRF-CEM leukemia were above 100 µM, 77.5 µM and 47.4 µM, respectively.
Regarding `CC(C)CC(NC(=O)C(N)CCC(=O)OCc1ccccc1)C(=O)NC(COCc1ccccc1)C(=O)NC(Cc1ccccc1)C(=O)ON1C(=O)CCC1=O` (stereo not drawn) (H-E(OBn)LS(Bn)F-OSu; configuration not given here), the TGI in the experiment with SN12C renal was above 100 µM; in the experiment with 786-0 renal, above 100 µM; in the experiment on UACC-257 melanoma, 66.1 µM; in the experiment on HCT-116 colon, 33.1 µM; in the experiment on IGROV1 ovarian, 72.6 µM; in the experiment on MOLT-4 leukemia it was 62.8 µM. Moreover, the TGI came out at 68.6 µM in the experiment with SK-MEL-28 melanoma, 61.4 µM in the experiment with RPMI-8226 leukemia and 82.1 µM in the experiment on CCRF-CEM leukemia.
For the compound `COC1CCC(n2c([C@@H]3CCCC(=O)N3c3ccc(F)c(F)c3)nc3cc(-c4c(C)noc4C)ccc32)CC1` (stereo partly drawn), the GI50 is 4.73 µM in the experiment on HCT-15 colon; 10.3 µM with SN12C renal; 2540 nM with UACC-257 melanoma; 10 µM with HCT-116 colon; 4.61 µM in the experiment with IGROV1 ovarian; 16.9 µM in the experiment with MOLT-4 leukemia. Moreover, the GI50 in the experiment on SK-MEL-28 melanoma was 11.8 µM; with RPMI-8226 leukemia, 703 nM; in the experiment on CCRF-CEM leukemia, 4.66 µM. The TGI with HCT-15 colon is 38.3 µM; in the experiment with SN12C renal, 29.6 µM; in the experiment on UACC-257 melanoma, above 100 µM; in the experiment with HCT-116 colon, 22.4 µM; with IGROV1 ovarian, 25.4 µM; in the experiment with MOLT-4 leukemia it was 72.2 µM. Besides, the figures for the TGI in the experiment on SK-MEL-28 melanoma, in the experiment on RPMI-8226 leukemia and in the experiment on CCRF-CEM leukemia were 28.1 µM, 8.21 µM and 57.7 µM, respectively.
On to `CC1=CC(=O)/C(=C/N2CCNC2=S)C(=O)O1`, for which the TGI with HCT-15 colon, in the experiment with SN12C renal, with 786-0 renal, with UACC-257 melanoma, in the experiment on HCT-116 colon and with IGROV1 ovarian was above 100 µM throughout. For the same compound, the TGI with MOLT-4 leukemia, in the experiment on RPMI-8226 leukemia and in the experiment on CCRF-CEM leukemia was above 100 µM in each case.
As to `CC(CN(C)C)C(=O)/C=C/c1ccc(Cl)c(Cl)c1` (stereo not drawn), the TGI in the experiment with SN12C renal is 3.11 µM; in the experiment with 786-0 renal, 2.01 µM; in the experiment on UACC-257 melanoma, 5.61 µM; with HCT-116 colon it was 2.99 µM; in the experiment with IGROV1 ovarian, 3.73 µM; in the experiment on MOLT-4 leukemia it was above 100 µM. For the same compound, the TGI in the experiment with SK-MEL-28 melanoma is 16.5 µM; with RPMI-8226 leukemia, above 100 µM; in the experiment with CCRF-CEM leukemia it was 2.74 µM.

(Values after PubChem BioAssay (NCI).)
